Results published in article PMC5152921, “Evolutionary and Functional Diversification of the Vitamin D Receptor-Lithocholic Acid Partnership” (PLoS ONE, 2016).

Columns and labels:
Assay in all cases: Competitive ligand binding assay ([3H]-1,25D3 displacement)
Settings in all cases: lysate with VDR and human RXRWT; 4 nM [3H]-1,25D3; 18 hours at 4°C; Cheng-Prusoff; mean ± SEM
Medaka VDRβ = biological target: T1, Medaka VDRβ (Oryzias latipes, UniProt B2CCA1)
T1 sequence (B2CCA1 1-425): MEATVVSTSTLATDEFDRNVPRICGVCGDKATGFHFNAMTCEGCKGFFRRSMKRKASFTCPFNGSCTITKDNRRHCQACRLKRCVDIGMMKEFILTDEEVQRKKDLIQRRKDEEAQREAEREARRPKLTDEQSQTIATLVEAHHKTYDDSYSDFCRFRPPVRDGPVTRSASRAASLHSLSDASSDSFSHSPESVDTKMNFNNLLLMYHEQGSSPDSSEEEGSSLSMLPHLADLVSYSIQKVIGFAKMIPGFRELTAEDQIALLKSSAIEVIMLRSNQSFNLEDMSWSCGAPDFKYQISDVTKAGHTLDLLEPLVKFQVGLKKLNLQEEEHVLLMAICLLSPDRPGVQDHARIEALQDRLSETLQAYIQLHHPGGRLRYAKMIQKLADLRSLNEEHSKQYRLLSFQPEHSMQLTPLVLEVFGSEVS
T1 sequence (P19793 1-462 partner): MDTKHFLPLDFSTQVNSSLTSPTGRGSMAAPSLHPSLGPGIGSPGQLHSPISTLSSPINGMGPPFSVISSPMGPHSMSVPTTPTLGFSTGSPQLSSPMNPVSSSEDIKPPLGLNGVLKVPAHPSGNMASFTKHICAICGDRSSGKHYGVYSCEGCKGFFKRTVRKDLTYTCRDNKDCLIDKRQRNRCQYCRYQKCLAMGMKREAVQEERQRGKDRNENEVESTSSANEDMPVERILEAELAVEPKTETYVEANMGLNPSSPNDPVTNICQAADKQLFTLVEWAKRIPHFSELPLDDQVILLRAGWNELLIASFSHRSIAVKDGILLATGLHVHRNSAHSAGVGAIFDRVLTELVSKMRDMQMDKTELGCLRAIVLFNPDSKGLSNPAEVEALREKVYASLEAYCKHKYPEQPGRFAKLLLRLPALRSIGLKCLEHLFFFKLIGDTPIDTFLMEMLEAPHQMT
Protocol: (§1) Recombinant VDR and human RXRWT lysates were prepared from transfected COS7 cells (American Type Culture Collection #CRL-1651) as described in detail previously. Lysates were diluted 10-fold in ice-cold assay buffer (10 mM Tris HCl, 150 mM KCl, 1 mM EDTA, 0.3 mM ZnCl2, 5 mM DTT, and 1x protease inhibitor cocktail (100 μM AEBSF, 80 nM aprotinin, 5 μM bestatin, 1.5 μM E-64 (for cysteine proteases), 2 μM leupeptin, 1 μM pepstatin A), pH 7.5). […] Reactions were shaken to mix and incubated for 18 hours at 4°C. Bound and free ligand were separated with the addition of 80 μL of ice-cold separation buffer (2.5% (w/v) activated charcoal, 0.5% (w/v) dextran, 100 mM Na2HPO4, 39 mM NaH2PO4, 150 mM NaCl, 15 mM NaN3, 10% gelatin, pH 7.0), and incubated at 4°C for 15 minutes with shaking every 5 minutes. Reactions were centrifuged at 5,000 x g for 5 minutes at 4°C, and 200 μL of the supernatant containing the VDR-bound ligands was removed for scintillation counting.
(§2) Total binding was determined using lysate from cells transfected with VDR, and nonspecific binding was determined using lysate from cells transfected with the empty pSG5 vector. Specific binding was determined by subtracting non-specific binding counts from the total binding counts.

Bichir VDR = biological target: T2, Bichir VDR (Polypterus senegalus, UniProt A0A088GJ14)
T2 sequence (A0A088GJ14 1-421): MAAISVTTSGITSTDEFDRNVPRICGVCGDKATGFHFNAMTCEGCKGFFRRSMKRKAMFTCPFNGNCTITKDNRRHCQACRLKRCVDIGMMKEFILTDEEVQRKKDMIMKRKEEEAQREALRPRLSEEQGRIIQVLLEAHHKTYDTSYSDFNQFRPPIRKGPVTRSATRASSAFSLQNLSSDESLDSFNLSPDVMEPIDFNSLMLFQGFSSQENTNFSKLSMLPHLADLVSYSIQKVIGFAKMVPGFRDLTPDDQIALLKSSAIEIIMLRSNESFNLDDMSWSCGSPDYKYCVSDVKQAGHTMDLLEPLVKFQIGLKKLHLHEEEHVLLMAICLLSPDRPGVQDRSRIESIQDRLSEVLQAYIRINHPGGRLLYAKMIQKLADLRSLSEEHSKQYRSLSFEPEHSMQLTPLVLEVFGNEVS
T2 sequence (P19793 1-462 partner): T1 sequence (P19793 1-462 partner)
Protocol: as §1, §2

Skate VDR = biological target: T3, Skate VDR (Leucoraja erinacea, UniProt A0A088GDQ7)
T3 sequence (A0A088GDQ7 1-434): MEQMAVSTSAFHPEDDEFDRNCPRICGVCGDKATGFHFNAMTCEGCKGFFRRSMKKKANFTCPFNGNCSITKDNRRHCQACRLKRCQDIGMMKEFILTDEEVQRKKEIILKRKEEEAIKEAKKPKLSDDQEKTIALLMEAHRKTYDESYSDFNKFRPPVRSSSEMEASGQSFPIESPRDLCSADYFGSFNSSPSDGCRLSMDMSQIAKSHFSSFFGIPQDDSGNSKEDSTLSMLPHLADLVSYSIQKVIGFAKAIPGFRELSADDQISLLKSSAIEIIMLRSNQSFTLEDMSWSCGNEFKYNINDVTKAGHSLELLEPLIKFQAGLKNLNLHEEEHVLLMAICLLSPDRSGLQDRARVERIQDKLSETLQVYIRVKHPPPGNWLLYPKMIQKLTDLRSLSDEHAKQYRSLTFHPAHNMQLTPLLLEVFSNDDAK
T3 sequence (P19793 1-462 partner): T1 sequence (P19793 1-462 partner)
Protocol: as §1, §2

C[C@H](CCC(=O)O)[C@H]1CC[C@H]2[C@@H]3CC[C@@H]4C[C@H](O)CC[C@]4(C)[C@H]3CC[C@]12C [LCA, 5β-cholanic acid-3α-ol]
Ki (Medaka VDRβ): 7.6 ± 1.1 µM
Ki (Bichir VDR): 4.2 ± 0.4 µM
Ki (Skate VDR): 6.7 ± 2.1 µM
